Measurements published in ChEMBL document CHEMBL6120965, “Structure-Activity Relationship Studies Leading to the Discovery of Highly Water-Soluble and Biocompatible Acyclic Cucurbit[n]uril FY-3451 as a Universal Antagonist That Rapidly Reverses Neuromuscular Blocking Agents In Vivo” (J Med Chem, 2024).

Legend:
Rattus norvegicus [1] = test: Recovery of CisA-induced neuromuscular block in Sprague-Dawley rat assessed as […] ratio (TOFr) >= 90% by measuring recovery time at 80 mg/kg, iv (reference value: 784 seconds); assay type: functional
[2] = Water solubility of the compound measured at 25 degreeC; assay type: physicochemical
Rattus norvegicus [3] = test: Recovery of Roc-induced neuromuscular block in Sprague-Dawley rat assessed as […] ratio (TOFr) >= 90% by measuring recovery time at 25 mg/kg, iv (reference value: 597 seconds); assay type: functional
[4] = Toxicity in iv dosed Sprague-Dawley rat assessed as maximum tolerated dose measured upto 14 days; assay type: organism-based; conditions: in vivo, 336 h, time < 14 day
[5] = Therapeutic index, ratio of toxicity in iv dosed Sprague-Dawley rat assessed as maximum tolerated dose to recovery of Roc/Vec/Panc-induced neuromuscular block in Sprague-Dawley rat assessed as […] ratio (TOFr) by measuring recovery time at 25 mg/kg, iv; assay type: organism-based; conditions: in vivo, read-out: TI
[6] = tested on: Trans-cydohexane-1,4-diartunonium dichloride; test: Binding affinity to Trans-[…] dichloride by Competition UV-Vis titration method
Pancuronium = test: Binding affinity to Pancuronium by Competition UV-Vis titration method
Rattus norvegicus [7] = test: Recovery of IMC-1-induced neuromuscular block in Sprague-Dawley rat assessed as […] ratio (TOFr) >= 90% by measuring recovery time at 10 mg/kg, iv (reference value: 4021 seconds); assay type: functional
Rattus norvegicus [8] = test: Recovery of Vec-induced neuromuscular block in Sprague-Dawley rat assessed as […] ratio (TOFr) >= 90% by measuring recovery time at 25 mg/kg, iv (reference value: 525 seconds); assay type: functional
Proflavine = test: Binding affinity to Proflavine by Competition UV-Vis titration method
Rocuronium = test: Binding affinity to Rocuronium by Competition UV-Vis titration method
[9] = tested on: Midazolium-based-macrocycle; test: Binding affinity to Midazolium-based-macrocycle by Competition UV-Vis titration method
Rattus norvegicus [10] = test: Recovery of CisA-induced neuromuscular block in Sprague-Dawley rat assessed as […] ratio (TOFr) >= 90% by measuring recovery time at 120 mg/kg, iv (reference value: 784 seconds); assay type: functional
[11] = Therapeutic index, ratio of toxicity in iv dosed Sprague-Dawley rat assessed as maximum tolerated dose to recovery of CisA-induced neuromuscular block in Sprague-Dawley rat assessed as […] ratio (TOFr) by measuring recovery time at 80 to 100 mg/kg, iv; assay type: organism-based; conditions: in vivo, dose 80-100 mg/kg, read-out: TI
[12] = Solubility of the compound in sodium phosphate buffered water; assay type: physicochemical
Rhodamine 6G = test: Binding affinity to Rhodamine 6G by Competition UV-Vis titration method
Vecuronium = test: Binding affinity to Vecuronium by Competition UV-Vis titration method
Rattus norvegicus [13] = test: Recovery of Pan-induced neuromuscular block in Sprague-Dawley rat assessed as […] ratio (TOFr) >= 90% by measuring recovery time at 25 mg/kg, iv (reference value: 3600 seconds); assay type: functional
Cisatracurium = test: Binding affinity to Cisatracurium by Competition UV-Vis titration method

Molecule `CC[C@]12N3Cc4c(c(OCCCS(=O)(=O)[O-])c5ccccc5c4OCCCS(=O)(=O)[O-])CN1C(=O)N1CN4C(=O)N5CN6C(=O)N7CN8C(=O)N9Cc%10c(c(OCCCS(=O)(=O)[O-])c%11ccccc%11c%10OCCCS(=O)(=O)[O-])CN%10C(=O)N(CN%11C(=O)N(CN%12C(=O)N(CN(C3=O)[C@]12CC)[C@@H]4[C@H]%125)[C@@H]6[C@H]%117)[C@]8(CC)[C@@]9%10CC.[Na+].[Na+].[Na+].[Na+]` has a Time (Rattus norvegicus [1]) of 57 s, a solubility [2] of 670 mg/mL and a Time (Rattus norvegicus [3]) of 19 s. The MTD [4] was 500 mg/kg.

For `O=C1N2Cc3c(OCCCS(=O)(=O)[O-])ccc(OCCCS(=O)(=O)[O-])c3CN3C(=O)N4CN5C(=O)N6CN7C(=O)N8CN9C(=O)N%10Cc%11c(OCCCS(=O)(=O)[O-])ccc(OCCCS(=O)(=O)[O-])c%11CN%11C(=O)N(CN%12C(=O)N(CN%13C(=O)N(CN1C41CCCCC231)[C@H]5[C@H]6%13)[C@H]7[C@H]8%12)C91CCCCC%10%111.[Na+].[Na+].[Na+].[Na+]` (stereo not given in full), the solubility [2] was 520 mg/mL and the Time (Rattus norvegicus [3]) was 203 s.

In the case of `CN(C)C(=O)Oc1cccc([N+](C)(C)C)c1` [NEOSTIGMINE], the Time (Rattus norvegicus [1]) is reported as 276 s and the Time (Rattus norvegicus [3]) is reported as 409 s.

With `C[C@]12N3Cc4c(c(OCC(C(=O)[O-])C(=O)[O-])c5ccccc5c4OCC(C(=O)[O-])C(=O)[O-])CN1C(=O)N1CN4C(=O)N5CN6C(=O)N7CN8C(=O)N9Cc%10c(c(OCC(C(=O)[O-])C(=O)[O-])c%11ccccc%11c%10OCC(C(=O)[O-])C(=O)[O-])CN%10C(=O)N(CN%11C(=O)N(CN%12C(=O)N(CN(C3=O)[C@]12C)[C@@H]4[C@H]%125)[C@@H]6[C@H]%117)[C@]8(C)[C@@]9%10C.[Na+].[Na+].[Na+].[Na+].[Na+].[Na+].[Na+].[Na+]` the Time (Rattus norvegicus [3]) was 84 s.

For `Cc1c(C)c(OCCCS(=O)(=O)[O-])c2c(c1OCCCS(=O)(=O)[O-])CN1C(=O)N3CN4C(=O)N5CN6C(=O)N7CN8C(=O)N9Cc%10c(c(OCCCS(=O)(=O)[O-])c(C)c(C)c%10OCCCS(=O)(=O)[O-])CN%10C(=O)N(CN%11C(=O)N(CN%12C(=O)N(CN%13C(=O)N(C2)[C@]1(C)[C@]%133C)[C@@H]4[C@@H]5%12)[C@@H]6[C@@H]7%11)[C@]8(C)[C@]%109C.[Na+].[Na+].[Na+].[Na+]`, the Time (Rattus norvegicus [1]) was 35 s, the selectivity ratio [5] was 60 and the Ka [6] was 0.069 10^7/M. For the same molecule, the Ka (Pancuronium) was 51 10^7/M, the solubility [2] was 500 mg/mL and the Time (Rattus norvegicus [7]) was 13 s. For the same molecule, the Time (Rattus norvegicus [8]) was 13 s, the Ka (Proflavine) was 13 10^7/M and the Time (Rattus norvegicus [3]) was 30 s. For the same molecule, the Ka (Rocuronium) was 9.84 10^7/M, the Ka [9] was 119 10^7/M and the Time (Rattus norvegicus [10]) was 28 s. For the same molecule, the selectivity ratio [11] was 18.8, the solubility [12] was 563 mg/mL and the Ka (Rhodamine 6G) was 0.045 10^7/M. For the same molecule, the MTD [4] was 500 mg/kg, the Ka (Vecuronium) was 2.92 10^7/M and the Time (Rattus norvegicus [13]) was 21 s. For the same molecule, the Ka (Cisatracurium) was 0.13 10^7/M.

In the case of `C[C@]12N3Cc4c(c(OCCC(=O)[O-])c5ccccc5c4OCCC(=O)[O-])CN1C(=O)N1CN4C(=O)N5CN6C(=O)N7CN8C(=O)N9Cc%10c(c(OCCC(=O)[O-])c%11ccccc%11c%10OCCC(=O)[O-])CN%10C(=O)N(CN%11C(=O)N(CN%12C(=O)N(CN(C3=O)[C@]12C)[C@@H]4[C@H]%125)[C@@H]6[C@H]%117)[C@]8(C)[C@@]9%10C.[Na+].[Na+].[Na+].[Na+]`, the Time (Rattus norvegicus [3]) is reported as 95 s.

`C[C@]12N3Cc4c(c(OCC(=O)[O-])c5ccccc5c4OCC(=O)[O-])CN1C(=O)N1CN4C(=O)N5CN6C(=O)N7CN8C(=O)N9Cc%10c(c(OCC(=O)[O-])c%11ccccc%11c%10OCC(=O)[O-])CN%10C(=O)N(CN%11C(=O)N(CN%12C(=O)N(CN(C3=O)[C@]12C)[C@@H]4[C@H]%125)[C@@H]6[C@H]%117)[C@]8(C)[C@@]9%10C.[Na+].[Na+].[Na+].[Na+]` gave a Time (Rattus norvegicus [3]) of 108 s.

`CC[C@]12N3Cc4c(OCCCS(=O)(=O)[O-])ccc(OCCCS(=O)(=O)[O-])c4CN1C(=O)N1CN4C(=O)N5CN6C(=O)N7CN8C(=O)N9Cc%10c(OCCCS(=O)(=O)[O-])ccc(OCCCS(=O)(=O)[O-])c%10CN%10C(=O)N(CN%11C(=O)N(CN%12C(=O)N(CN(C3=O)[C@]12CC)[C@@H]4[C@H]%125)[C@@H]6[C@H]%117)[C@]8(CC)[C@@]9%10CC.[Na+].[Na+].[Na+].[Na+]` gave a solubility [2] of 750 mg/mL and a Time (Rattus norvegicus [3]) of 348 s.

In the case of `O=C(O)CCSC[C@H]1O[C@@H]2O[C@H]3[C@H](O)[C@@H](O)[C@@H](O[C@H]4[C@H](O)[C@@H](O)[C@@H](O[C@H]5[C@H](O)[C@@H](O)[C@@H](O[C@H]6[C@H](O)[C@@H](O)[C@@H](O[C@H]7[C@H](O)[C@@H](O)[C@@H](O[C@H]8[C@H](O)[C@@H](O)[C@@H](O[C@H]9[C@H](O)C(O)[C@@H](O[C@H]1[C@H](O)[C@H]2O)O[C@@H]9CSCCC(=O)O)O[C@@H]8CSCCC(=O)O)O[C@@H]7CSCCC(=O)O)O[C@@H]6CSCCC(=O)O)O[C@@H]5CSCCC(=O)O)O[C@@H]4CSCCC(=O)O)O[C@@H]3CSCCC(=O)O` (stereo not given in full), the Ka (Rocuronium) is reported as 1.05 10^7/M.

`COc1cc(OCCCS(=O)(=O)[O-])c2c(c1OCCCS(=O)(=O)[O-])CN1C(=O)N3CN4C(=O)N5CN6C(=O)N7CN8C(=O)N9Cc%10c(c(OCCCS(=O)(=O)[O-])cc(OC)c%10OCCCS(=O)(=O)[O-])CN%10C(=O)N(CN%11C(=O)N(CN%12C(=O)N(CN%13C(=O)N(C2)C1(C)C%133C)C4C%125)C6C%117)C8(C)C%109C.[Na+].[Na+].[Na+].[Na+]` (stereo not given) showed a solubility [2] of 870 mg/mL and a Time (Rattus norvegicus [3]) of 40 s.

`CC[C@]12N3Cc4c(c(OCCCS(=O)(=O)[O-])c(C)c(C)c4OCCCS(=O)(=O)[O-])CN1C(=O)N1CN4C(=O)N5CN6C(=O)N7CN8C(=O)N9Cc%10c(c(OCCCS(=O)(=O)[O-])c(C)c(C)c%10OCCCS(=O)(=O)[O-])CN%10C(=O)N(CN%11C(=O)N(CN%12C(=O)N(CN(C3=O)[C@]12CC)[C@@H]4[C@H]%125)[C@@H]6[C@H]%117)[C@]8(CC)[C@@]9%10CC.[Na+].[Na+].[Na+].[Na+]` showed a Time (Rattus norvegicus [1]) of 130 s, a solubility [2] of 940 mg/mL and a Time (Rattus norvegicus [3]) of 31 s.

`Cc1cc(OCCCS(=O)(=O)[O-])c2c(c1OCCCS(=O)(=O)[O-])CN1C(=O)N3CN4C(=O)N5CN6C(=O)N7CN8C(=O)N9Cc%10c(c(OCCCS(=O)(=O)[O-])cc(C)c%10OCCCS(=O)(=O)[O-])CN%10C(=O)N(CN%11C(=O)N(CN%12C(=O)N(CN%13C(=O)N(C2)C1(C)C%133C)C4C%125)C6C%117)C8(C)C%109C.[Na+].[Na+].[Na+].[Na+]` (mixture of isomers) showed a solubility [2] of 600 mg/mL and a Time (Rattus norvegicus [3]) of 151 s.
